Values of other authors, collected in PMC9800617, “Pharmacokinetics/pharmacodynamics of polymyxin B in patients with bloodstream infection caused by carbapenem-resistant Klebsiella pneumoniae” (Frontiers in Pharmacology, 2022).
Bridge positions count the residues as written; N and C are the ends. Square brackets hold non-standard residues; d marks the D form. Peptide text beside a SMILES is read from it. * marks the point of attachment. X1 = CC[C@H](C)CCCCC(=O)*; Dab = NCC[C@H](N)C(=O)O

Legend:
[1] = cited from earlier work
Method: Our study is the first to specifically examine patients with BSI using the recommended dosage regimen of polymyxin B (2.5–3.0 mg/kg/d) ([Tsuji et al., 2019]). Previous studies utilizing PPK models to examine polymyxin B PK have included primarily critically ill patients with various medical conditions or patients with cystic fibrosis, and have employed a wide range of doses (0.45–3.38 mg/kg/day) ([Sandri et al., 2013]; [Avedissian et al., 2018]; [Kubin et al., 2018]; [Manchandani et al., 2018]; [Miglis et al., 2018]; [Yu et al., 2021]).

[2] = 24 critically ill patients, 0.45–3.38 mg/kg/day, no loading dose, ref Sandri et al., 2013, cited from earlier work
Method: A good understanding of the PK of polymyxin B is essential for optimizing its clinical use. A previous population PK study examining the use of polymyxin B (0.45–3.38 mg/kg/day) in 24 critically ill patients reported an AUCss,24h of 66.9 ± 21.6 mg h/L (range, 16.4–117 mg h/L) and Css,avg of 2.79 ± 0.90 mg/L; no loading dose was administered ([Sandri et al., 2013]).

[3] = cited from earlier work; remark: listed apart in the source
Method: Monte Carlo simulations were conducted for the probability of target attainment (PTA) analysis to guide the selection of optimal dosage regimens. Different dosage regimens were simulated by the PPK model and AUCss,24h were calculated. […] The maximal reductions in colony f ... || FIGURE 4 Probability of target attainment for different dosage regimens of polymyxin B against common carbapenem-resistant organisms according to PK/PD simulations. (A) Loading dose for three bacterial species. […] Or gani s m Dose Dosing MIC (mg/L) (m g/ k g) frequen c y 0.25 0.5 1 2 4 8 2 Loading 100.0 100.0 99.6 40.5 0 0 2.5 dose 100.0 100.0 100.0 71.0 2.0 0 Klebsiella 0.5 100.0 99.7 40.5 0.2 0 0 pneum oniae 0.75 Maintenance 100.0 100.0 90.6 11.0 0 0 1.0 dose, q12h 10 ...

K. pneumoniae = conditions: ref Landersdorfer et al., 2018, cited from earlier work
Method: Monte Carlo simulations were conducted for the probability of target attainment (PTA) analysis to guide the selection of optimal dosage regimens. Different dosage regimens were simulated by the PPK model and AUCss,24h were calculated. […] The maximal reductions in colony f ... || FIGURE 4 Probability of target attainment for different dosage regimens of polymyxin B against common carbapenem-resistant organisms according to PK/PD simulations. (A) Loading dose for three bacterial species. […] In preclinical studies, the fAUC/MIC required for various magnitudes of bacterial killing varied among bacterial strains and infection sites. […] Against P. aeruginosa and A. b ... || (+ 2 further places)

[4] = cited from earlier work; remark: listed apart in the source
Source text: Nephrotoxicity following intravenous administration of polymyxin B may occur in up to ∼30% of patients and constitutes the major dose-limiting factor with polymyxin therapy ([Ouderkirk et al., 2003]; [Sobieszczyk et al., 2004]; [Phe et al., 2014]; [Oliota et al., 2019]). The inability to substantially increase the daily dose of polymyxins may lead to suboptimal dosing which compromises efficacy and increases the likelihood of resistance emerging ([Zavascki et al., 2007]; [Rigatto et al., 2014]). In the present study, no pathological factors affecting renal function were present in any of the p ...

[5] = healthy subjects, ref Liu et al., 2021

SMILES: CC[C@H](C)CCCCC(=O)N[C@@H](CCN)C(=O)N[C@H](C(=O)N[C@@H](CCN)C(=O)N[C@H]1CCNC(=O)[C@H]([C@@H](C)O)NC(=O)[C@H](CCN)NC(=O)[C@H](CCN)NC(=O)[C@H](CC(C)C)NC(=O)[C@@H](Cc2ccccc2)NC(=O)[C@H](CCN)NC1=O)[C@@H](C)O [polymyxin B] (X1-[Dab]T[Dab][Dab][Dab][dF]L[Dab][Dab]T; lactam 4-C)
- clearance [1, 5]: 0.433 ± 0.067 mL/min/kg
- half-life [1, 5]: 5.55 ± 0.942 h
- volume of distribution [1, 5]: 0.204 ± 0.026 L/kg
- dose excreted unchanged in the urine ([1]; ref Zavascki et al., 2008): ≤ 4%
- AUCss,24h ([2]; mean ± SD, SD): 66900 ± 21600 ng·h/mL
- Css,avg ([2]; mean ± SD, SD): 2790 ± 900 ng/mL
- AUCss,24h, range [2]: 16400 to 117000 ng·h/mL
- unbound fraction in plasma ([3]; as used in PK/PD simulations, given as fraction): 0.42
- unbound fraction (f) in human plasma ([3]; human plasma, ref Sandri et al., 2013): 42%
- fAUC24h/MIC target (K. pneumoniae; 1-log10 reduction against K. pneumoniae, murine thigh infection): 17.4
- target values of fAUC/MIC (K. pneumoniae; 1 log10 kill, mouse thigh infection, three strains of K. pneumoniae): 3.7–28.0
- 2 log10 kill (K. pneumoniae; mouse thigh infection, three strains of K. pneumoniae): 2 log10 kill could not be achieved with even the highest tolerated dose
- incidence of nephrotoxicity reported previously ([4]; ref Oliota et al., 2019): 29.8%
- incidence of polymyxin B-associated nephrotoxicity (RIFLE criteria) ([4]; ref Phe et al., 2014): 23.1%
- patients with nephrotoxicity following intravenous administration ([4]; up to, ref Ouderkirk et al., 2003, Sobieszczyk et al., 2004, Phe et al., 2014, Oliota et al., 2019): ~30%
